Tested on: patients after acute myocardial infarction
Assay: Life quality, Seattle Angina Questionnaire (SAQ), same clinical trial
Assay type: in vivo, human
Settings: FAS
Description: 3508 patients who were in accordance with the diagnostic standards of AMI for 28 days to 2 years and differentiated as Qi deficiency and blood stagnation syndrome by TCM were studied. 0.5 g Chinese medicine composition prepared by the method of EXAMPLE 1 (Coded as QSYQ) was administrated half an hour after meal, 3 times per day.
There were 19 questions in the Seattle angina questionnaire (SAQ), including 5 parts: physical limitation (PL), anginal stability (AS), anginal frequency (AF), treatment satisfaction (TS) and disease perception (DP). After being given necessary explanation by doctors, the questions were answered independently by patients.
They included the overall survival time, angina pectoris score, TCM symptom score and life quality score, where angina pectoris score, TCM symptom score and life quality score were evaluated at randomization, in 1st, 3rd, 6th, 9th, 12th month after treatment and 18th month after follow-up.
All evaluation results of SAQ were described during the period of observation, and Wilcoxon rank sum test was used for inter-group comparison.
The evaluation results in the SAQ were depicted in different observations, and inter-group comparison was tested by Wilcoxon Rank-sum test.

Which results are given for `CC(=O)Oc1ccccc1C(=O)O` [Control group, aspirine]?
SAQ Question 1-1 Other reasons, percent of patients (9 months after treatment): (0.17%); SAQ Question 1-1 Severely limited, number of patients (9 months after treatment): 1; SAQ Question 1-1 Severely limited, percent of patients (9 months after treatment): (0.06%); SAQ Question 1-1 Slightly limited, number of patients (9 months after treatment): 67; SAQ Question 1-1 Slightly limited, percent of patients (9 months after treatment): (3.84%); SAQ Question 1-2 Mildly limited, number of patients (9 months after treatment): 29; SAQ Question 1-2 Mildly limited, percent of patients (9 months after treatment): (1.66%); SAQ Question 1-2 Moderately limited, number of patients (9 months after treatment): 7; SAQ Question 1-2 Moderately limited, percent of patients (9 months after treatment): (0.40%); SAQ Question 1-2 Not limited, number of patients (9 months after treatment): 1631; SAQ Question 1-2 Not limited, percent of patients (9 months after treatment): (93.52%); SAQ Question 1-2 Other reasons, number of patients (9 months after treatment): 5; SAQ Question 1-2 Other reasons, percent of patients (9 months after treatment): (0.29%); SAQ Question 1-2 Severely limited, number of patients (9 months after treatment): 0; SAQ Question 1-2 Severely limited, percent of patients (9 months after treatment): (0.00%); SAQ Question 1-2 Slightly limited, number of patients (9 months after treatment): 72; SAQ Question 1-2 Slightly limited, percent of patients (9 months after treatment): (4.13%); SAQ Question 1-6: Mildly limited, patients (%) (9 months after treatment): (15.79%); SAQ Question 1-6: Moderately limited, patients (%) (9 months after treatment): (11.08%); SAQ Question 1-6: Not limited, patients (%) (9 months after treatment): (37.31%); SAQ Question 1-6: Other reasons, patients (%) (9 months after treatment): (0.86%); SAQ Question 1-6: Severely limited, patients (%) (9 months after treatment): (2.93%); SAQ Question 1-6: Slightly limited, patients (%) (9 months after treatment): (32.03%); SAQ Question 1-7: Mildly limited, patients (%) (9 months after treatment): (21.69%); SAQ Question 1-7: Moderately limited, patients (%) (9 months after treatment): (11.86%); SAQ Question 1-7: Not limited, patients (%) (9 months after treatment): (17.87%); SAQ Question 1-7: Other reasons, patients (%) (9 months after treatment): (3.07%); SAQ Question 1-7: Severely limited, patients (%) (9 months after treatment): (14.29%); SAQ Question 1-7: Slightly limited, patients (%) (9 months after treatment): (31.23%); SAQ Question 1-8: Mildly limited, patients (%) (9 months after treatment): (24.55%); SAQ Question 1-8: Moderately limited, patients (%) (9 months after treatment): (15.03%); SAQ Question 1-8: Not limited, patients (%) (9 months after treatment): (11.96%); SAQ Question 1-8: Other limited, patients (%) (9 months after treatment): (3.60%); SAQ Question 1-8: Severely limited, patients (%) (9 months after treatment): (17.93%); SAQ Question 1-8: Slightly limited, patients (%) (9 months after treatment): (26.93%); 8th question: Dissatisfied, patients (%) (12 months after treatment): (0.29%); 8th question: Highly satisfied, patients (%) (12 months after treatment): (25.29%); 8th question: Mostly dissatisfied, patients (%) (12 months after treatment): (2.01%); 8th question: Mostly satisfied, patients (%) (12 months after treatment): (60.09%); 8th question: Partly satisfied, patients (%) (12 months after treatment): (12.33%); 9th question: Few, patients (%) (12 months after treatment): (39.74%); 9th question: Mild, patients (%) (12 months after treatment): (30.56%); 9th question: Moderate, patients (%) (12 months after treatment): (6.82%); 9th question: Severe, patients (%) (12 months after treatment): (0.97%); 9th question: Uneffective, patients (%) (12 months after treatment): (21.90%); 10th question: Dissatisfied, patients (%) (12 months after treatment): (19.50%); 10th question: Highly satisfied, patients (%) (12 months after treatment): (7.57%); 10th question: Mostly dissatisfied, patients (%) (12 months after treatment): (19.21%); 10th question: Mostly satisfied, patients (%) (12 months after treatment): (30.85%); 10th question: Partly dissatisfied, patients (%) (12 months after treatment): (22.88%); 11th question: Continuously worried, patients (%) (12 months after treatment): (3.15%); 11th question: No worried, patients (%) (12 months after treatment): (7.11%); 11th question: Occasionally worried, patients (%) (12 months after treatment): (40.60%); 11th question: Often worried, patients (%) (12 months after treatment): (9.23%); 11th question: Seldom worried, patients (%) (12 months after treatment): (39.91%); SAQ 4th question, 1-2 times per week: % of patients (12 months after treatment): (10.61%); SAQ 4th question, 1-2 times per week: number of patients (12 months after treatment): 185; SAQ 4th question, 1-3 times per week: % of patients (12 months after treatment): (4.24%); SAQ 4th question, 1-3 times per week: number of patients (12 months after treatment): 74; SAQ 4th question, <1 time per week: % of patients (12 months after treatment): (16.51%); SAQ 4th question, <1 time per week: number of patients (12 months after treatment): 288; SAQ 4th question, Not used: % of patients (12 months after treatment): (64.56%); SAQ 4th question, Not used: number of patients (12 months after treatment): 1126; SAQ 4th question, ≧3 times per week: % of patients (12 months after treatment): (3.96%); SAQ 4th question, ≧3 times per week: number of patients (12 months after treatment): 69; SAQ 4th question, ≧4 times per day: % of patients (12 months after treatment): (0.11%); SAQ 4th question, ≧4 times per day: number of patients (12 months after treatment): 2; SAQ 5th question, 1-2 times per week: % of patients (12 months after treatment): (32.00%); SAQ 5th question, 1-2 times per week: number of patients (12 months after treatment): 558; SAQ 5th question, 1-3 times per day: % of patients (12 months after treatment): (6.14%); SAQ 5th question, 1-3 times per day: number of patients (12 months after treatment): 107; SAQ 5th question, <1 time per week: % of patients (12 months after treatment): (29.93%); SAQ 5th question, <1 time per week: number of patients (12 months after treatment): 522; SAQ 5th question, No onset: % of patients (12 months after treatment): (5.28%); SAQ 5th question, No onset: number of patients (12 months after treatment): 92; SAQ 5th question, ≧3 times per week: % of patients (12 months after treatment): (25.86%); SAQ 5th question, ≧3 times per week: number of patients (12 months after treatment): 451; SAQ 5th question, ≧4 times per day: % of patients (12 months after treatment): (0.80%); SAQ 5th question, ≧4 times per day: number of patients (12 months after treatment): 14; SAQ 6th question, Dissatisfied: % of patients (12 months after treatment): (0.29%); SAQ 6th question, Dissatisfied: number of patients (12 months after treatment): 5; SAQ 6th question, Highly satisfied: % of patients (12 months after treatment): (25.86%); SAQ 6th question, Highly satisfied: number of patients (12 months after treatment): 451; SAQ 6th question, Mostly dissatisfied: % of patients (12 months after treatment): (1.55%); SAQ 6th question, Mostly dissatisfied: number of patients (12 months after treatment): 27; SAQ 6th question, Mostly satisfied: % of patients (12 months after treatment): (60.61%); SAQ 6th question, Mostly satisfied: number of patients (12 months after treatment): 1057; SAQ 6th question, Partly satisfied: % of patients (12 months after treatment): (11.70%); SAQ 6th question, Partly satisfied: number of patients (12 months after treatment): 204; SAQ 7th question, Dissatisfied: % of patients (12 months after treatment): (0.11%); SAQ 7th question, Dissatisfied: number of patients (12 months after treatment): 2; SAQ 7th question, Highly satisfied: % of patients (12 months after treatment): (29.56%); SAQ 7th question, Highly satisfied: number of patients (12 months after treatment): 515; SAQ 7th question, Mostly dissatisfied: % of patients (12 months after treatment): (0.75%); SAQ 7th question, Mostly dissatisfied: number of patients (12 months after treatment): 13; SAQ 7th question, Mostly satisfied: % of patients (12 months after treatment): (59.82%); SAQ 7th question, Mostly satisfied: number of patients (12 months after treatment): 1042; SAQ 7th question, Partly satisfied: % of patients (12 months after treatment): (9.76%); SAQ 7th question, Partly satisfied: number of patients (12 months after treatment): 170; SAQ Question 1-1 Mildly limited, number of patients (12 months after treatment): 15; SAQ Question 1-1 Mildly limited, percent of patients (12 months after treatment): (0.86%); SAQ Question 1-1 Moderately limited, number of patients (12 months after treatment): 4; SAQ Question 1-1 Moderately limited, percent of patients (12 months after treatment): (0.23%); SAQ Question 1-1 Not limited, number of patients (12 months after treatment): 1659; SAQ Question 1-1 Not limited, percent of patients (12 months after treatment): (95.13%); SAQ Question 1-1 Other reasons, number of patients (12 months after treatment): 4; SAQ Question 1-1 Other reasons, percent of patients (12 months after treatment): (0.23%); SAQ Question 1-1 Severely limited, number of patients (12 months after treatment): 1; SAQ Question 1-1 Severely limited, percent of patients (12 months after treatment): (0.06%); SAQ Question 1-1 Slightly limited, number of patients (12 months after treatment): 61; SAQ Question 1-1 Slightly limited, percent of patients (12 months after treatment): (3.50%); SAQ Question 1-2 Mildly limited, number of patients (12 months after treatment): 18; SAQ Question 1-2 Mildly limited, percent of patients (12 months after treatment): (1.03%); SAQ Question 1-2 Moderately limited, number of patients (12 months after treatment): 6; SAQ Question 1-2 Moderately limited, percent of patients (12 months after treatment): (0.34%); SAQ Question 1-2 Not limited, number of patients (12 months after treatment): 1647; SAQ Question 1-2 Not limited, percent of patients (12 months after treatment): (94.44%); SAQ Question 1-2 Other reasons, number of patients (12 months after treatment): 6; SAQ Question 1-2 Other reasons, percent of patients (12 months after treatment): (0.34%); SAQ Question 1-2 Severely limited, number of patients (12 months after treatment): 0; SAQ Question 1-2 Severely limited, percent of patients (12 months after treatment): (0.00%); SAQ Question 1-2 Slightly limited, number of patients (12 months after treatment): 67; SAQ Question 1-2 Slightly limited, percent of patients (12 months after treatment): (3.84%); SAQ Question 1-6: Mildly limited, patients (%) (12 months after treatment): (14.93%); SAQ Question 1-6: Moderately limited, patients (%) (12 months after treatment): (9.70%); SAQ Question 1-6: Not limited, patients (%) (12 months after treatment): (40.47%); SAQ Question 1-6: Other reasons, patients (%) (12 months after treatment): (0.86%); SAQ Question 1-6: Severely limited, patients (%) (12 months after treatment): (2.58%); SAQ Question 1-6: Slightly limited, patients (%) (12 months after treatment): (31.46%); SAQ Question 1-7: Mildly limited, patients (%) (12 months after treatment): (20.46%); SAQ Question 1-7: Moderately limited, patients (%) (12 months after treatment): (11.10%); SAQ Question 1-7: Not limited, patients (%) (12 months after treatment): (20.46%); SAQ Question 1-7: Other limited, patients (%) (12 months after treatment): (3.29%); SAQ Question 1-7: Severely limited, patients (%) (12 months after treatment): (12.95%); SAQ Question 1-7: Slightly limited, patients (%) (12 months after treatment): (31.73%); SAQ Question 1-8: Mildly limited, patients (%) (12 months after treatment): (24.72%); SAQ Question 1-8: Moderately limited, patients (%) (12 months after treatment): (13.35%); SAQ Question 1-8: Not limited, patients (%) (12 months after treatment): (13.64%); SAQ Question 1-8: Other reasons, patients (%) (12 months after treatment): (3.95%); SAQ Question 1-8: Severely limited, patients (%) (12 months after treatment): (16.89%); SAQ Question 1-8: Slightly limited, patients (%) (12 months after treatment): (27.45%); 8th question: Dissatisfied, patients (%) (Baseline): (0.92%); 8th question: Highly satisfied, patients (%) (Baseline): (15.62%); 8th question: Mostly dissatisfied, patients (%) (Baseline): (6.55%); 8th question: Mostly satisfied, patients (%) (Baseline): (46.01%); 8th question: Partly satisfied, patients (%) (Baseline): (30.90%); 9th question: Few, patients (%) (Baseline): (21.02%); 9th question: Mild, patients (%) (Baseline): (36.70%); 9th question: Moderate, patients (%) (Baseline): (26.88%); 9th question: Severe, patients (%) (Baseline): (3.62%); 9th question: Uneffective, patients (%) (Baseline): (11.77%); 10th question: Dissatisfied, patients (%) (Baseline): (25.90%); 10th question: Highly satisfied, patients (%) (Baseline): (2.30%); 10th question: Mostly dissatisfied, patients (%) (Baseline): (23.72%)
